We go through six compounds from patent US8716317B2, “Sulfonamides with heterocycle and oxadiazolone headgroup, processes for their preparation and their use as pharmaceuticals” (Sanofi, priority 2008, dated 2014).

Broadly, the EC50 is the concentration needed to bring the measured effect to its halfway point. High values mean a need for much substance, low ones an effect from little substance.

One assay addresses T1, human PPARalpha (Homo sapiens, UniProt Q07869).
T1 construct: amino acids S167-Y468; expressed in transfected cells; host or cells: HEK (human embryo kidney) cells, stably transfected with a pcDNA3 construct
T1 sequence (Q07869 167-468): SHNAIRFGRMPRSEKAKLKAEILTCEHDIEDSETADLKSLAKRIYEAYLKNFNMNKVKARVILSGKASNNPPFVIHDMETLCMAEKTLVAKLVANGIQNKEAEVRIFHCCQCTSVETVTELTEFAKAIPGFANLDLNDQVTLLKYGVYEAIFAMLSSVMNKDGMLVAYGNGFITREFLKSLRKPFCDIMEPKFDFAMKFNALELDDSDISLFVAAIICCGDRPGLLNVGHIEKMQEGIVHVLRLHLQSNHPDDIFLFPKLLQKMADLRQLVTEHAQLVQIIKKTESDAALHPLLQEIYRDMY
The assay is described as follows: Cellular PPARalpha assay (luciferase reporter, stably transfected HEK cell line). Format: cell-based. The note with it: GR-GAL4-humanPPARalpha-LBD. Here is the method: (§1) The potency of substances which bind to human PPARalpha and activate it in an agonistic manner is analyzed using a stably transfected HEK cell line (HEK=human embryo kidney) which is referred to here as PPARalpha reporter cell line. It contains two genetic elements, a luciferase reporter element (pdeltaM-GAL4-Luc-Zeo) and a PPARalpha fusion protein (GR-GAL4-humanPPARalpha-LBD) which mediates expression of the luciferase reporter element depending on a PPARalpha ligand. The stably and constitutively expressed fusion protein GR-GAL4-humanPPARalpha-LBD binds in the cell nucleus of the PPARalpha reporter cell line via the GAL4 protein portion to the GAL4 DNA binding motifs 5″-upstream of the luciferase reporter element which is stably integrated in the genome of the cell line. There is only weak expression of the luciferase reporter gene in the absence of a PPARalpha ligand if fatty acid-depleted fetal calf serum (cs-FCS) is used in the assay. PPARalpha ligands bind and activate the PPARalpha fusion protein and thereby stimulate the expression of the luciferase reporter gene. The luciferase which is formed can be detected by means of chemiluminescence via an appropriate substrate.
The PPARalpha reporter cell line was prepared in two stages. […]
The activity of PPARalpha agonists is determined in a 3-day assay which is described below: […]
(In general: In a reporter assay the amount or activity of a reporter protein is the signal.)

A further assay deals with T2, human PPARdelta (Homo sapiens, UniProt Q03181).
T2 construct: amino acids S139-Y441; expressed in transfected cells; host or cells: HEK (human embryo kidney) cells, stably transfected with a pcDNA3 construct
T2 sequence (Q03181 139-441): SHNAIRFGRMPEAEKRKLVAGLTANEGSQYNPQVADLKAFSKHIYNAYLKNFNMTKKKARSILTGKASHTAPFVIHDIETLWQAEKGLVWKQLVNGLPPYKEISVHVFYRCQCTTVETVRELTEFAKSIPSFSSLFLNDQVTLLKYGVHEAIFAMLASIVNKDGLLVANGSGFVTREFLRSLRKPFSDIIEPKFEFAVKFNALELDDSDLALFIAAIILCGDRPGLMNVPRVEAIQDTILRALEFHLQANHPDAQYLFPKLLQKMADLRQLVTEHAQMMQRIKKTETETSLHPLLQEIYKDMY
Description: Cellular PPARdelta assay (luciferase reporter, stably transfected HEK cell line). In kind it is cell-based. The following applies: GR-GAL4-humanPPARdelta-LBD. The protocol:
as §1, with “PPARdelta” for “PPARalpha”, “In analogy to the assay described for PPARalpha, the PPARdelta reporter cell line also” for “It”, “(GR-GAL4-humanPPARdelta-LBD)” for “(GR-GAL4-humanPPARalpha-LBD)”, “GR-GAL4-humanPPARdelta-LBD” for “GR-GAL4-humanPPARalpha-LBD”, “little” for “weak”, “stimulate” for “stimulate the”
The production of the stable PPARdelta reporter cell line is based on a stable HEK-cell clone which was stably transfected with a luciferase reporter element. This step was already described above in the section “construction of the PPARalpha reporter cell line”. […]
The activity of PPARdelta agonists is determined in a 3-day assay in exact analogy to the procedure already described for the PPARalpha reporter cell line except that the PPARdelta reporter cell line and a specific PPARdelta agonist was used as a standard to control test efficacy.

For assay [1] the following is noted: diabetic animal model; cited from earlier work.
For assay [2] the following is noted: obese, insulin resistant rhesus monkeys, cited from earlier work.
The conditions of assay [3]: rhesus and cynomolgus monkeys; cited from earlier work.
For assay [4] the following is noted: two weeks clinical trials in healthy volunteers; cited from earlier work.

Read-outs that look alike come from different tables or passages of the source.

In the case of `O=c1[nH]c(-c2ccc(S(=O)(=O)N3CCc4cc(-c5ccc(C(F)(F)F)cc5)ccc43)s2)no1` [Example 1, 3-{5-[5-(4-Trifluoromethyl-phenyl)-2,3-dihydro-indole-1-sulfonyl]thiophen-2-yl}-4H-[1,2,4]oxadiazol-5-one], the concentration giving a half-maximal response (EC50) stood at 920 nM at human PPARalpha and 21 nM on human PPARdelta.

With `O=c1[nH]c(-c2ccc(S(=O)(=O)N3CCc4cc(-c5ccc(C(F)(F)F)cc5)ccc43)nc2)no1` [Example 2, 3-{6-[5-(4-Trifluoromethyl-phenyl)-2,3-dihydro-indole-1-sulfonyl]-pyridin-3-yl}-4H-[1,2,4]oxadiazol-5-one], the EC50 on human PPARalpha was 6700 nM; at human PPARdelta it was 336 nM.

With `O=c1[nH]c(-c2ccc(S(=O)(=O)N3CCc4cc(-c5ccc(C(F)(F)F)cc5)ccc43)cn2)no1` [Example 3, 3-{5-[5-(4-Trifluoromethyl-phenyl)-2,3-dihydro-indole-1-sulfonyl]-pyridin-2-yl}-4H-[1,2,4]oxadiazol-5-one], on human PPARdelta, the EC50 is 13 nM.

As for `CCCc1c(OCCCOc2ccc(OCC(=O)O)cc2)ccc(C(C)=O)c1O` [Example L-165041], in assay [1], the plasma cholesterol result is “raises plasma cholesterol”.

With `Cc1cc(SCc2sc(-c3ccc(C(F)(F)F)cc3)nc2C)ccc1OCC(=O)O` [GW501516], in assay [2] (plasma), the insulin levels result is “decreases” and the triglycerides entry is “decreases”. Besides, in assay [2], the HDL-cholesterol entry is given as “raises” and the “plasma LDL-cholesterol” value was “decreases”.

Take `CCCc1c(OCCCSc2nnc(SCC(=O)O)s2)ccc(C(C)=O)c1O` [YM-16638]: the figures for the plasma lipids result in assay [3] and in assay [4] were “significantly lowers plasma lipids” and “acts in a similar manner”, respectively.
